Laboratory results: publication PMC8026324, “In Vitro Antiplasmodial, Heme Polymerization, and Cytotoxicity of Hydroxyxanthone Derivatives” (Journal of Tropical Medicine, 2021)
Values after ≈ are worked out from the molar mass of the structure shown.

Experiments:
[1] = tested on: Hela; design: method as in earlier work; settings: cited from earlier work
[2] = tested on: WIDR; design: method as in earlier work; settings: cited from earlier work
[3] = tested on: Vero cells; test: In vitro cytotoxicity test, MTT assay on Vero cell line; assay type: cell-based; settings: for IC50: MTT assay
Protocol: The in vitro cytotoxicity test was conducted using the 3-(4,5-dimethylthiazol-2-yl)2,5-diphenyltetrazolium bromide (MTT) assay method on Vero cell line culture using the Anderson et al.'s modified method.
The cell was removed from the cryo medium. Then, the cell was thawed at 37°C. The liquid cell was subsequently transferred to the tube and a culture medium was added to a volume of 10 mL. Then, the suspension was centrifuged for 15 minutes so that it would form cell pellets. The supernatant was removed and 1 mL of culture medium was added to the cell pellets. Finally, the suspension was transferred to the Petri dish and incubated in the incubator with 5% of CO2 at 37°C.
The medium of Vero cell culture was removed, and then the cell was washed using a PBS solution with a volume of PBS ± 1/2 of the initial medium volume. This step was done twice and 1 mL of trypsin 0.25% was added. Subsequently, the cell was incubated in the CO2 incubator at 37°C for 3 minutes. Then, the cell was resuspended using 2 mL of culture medium and PBS solution was added up to 10 mL. The suspension was centrifuged for 15 minutes so that it formed pellets. Pellets were added with 1 mL of culture medium and resuspended. Take 10 μL of the cell suspension and density of cells was calculated.
Then, the cell was added with culture medium to 10 mL. A total of 100 μL of such suspensions was transferred into each well of the 96-well microplate, but three of the wells were emptied as medium controls. Subsequently, the microplate was incubated in a 5% CO2 incubator at 37°C.
Each hydroxyxanthone derivative compound was dissolved in DMSO, and a variety of concentrations were prepared in the medium. Each concentration of the testing compound was added into the 96-well microplate triplicately. Cell control and medium control were not given a testing compound solution. The medium control remained blank, while the cell control contained culture medium only. […] Then, the cell was incubated in a 5% CO2 incubator at 37°C for 24 hours.
After the cell was incubated for 24 hours, the medium was discarded and washed with PBS. Then, each well was added with 100 μL of 5 mg/mL of MTT solution. The 96-well microplate was incubated again in the incubator of CO2 at 37°C for 4 hours. Then, 100 μL of 10% of SDS in 0.01 MHCl was added. The cells were placed in a dark room at room temperature for 24 hours.
The absorbance was measured using the enzyme-linked immunosorbent assay (ELISA) reader at 595 nm wavelength. The cytotoxicity test on the Vero cells was done by calculating the percentage of Vero cell inhibition of the absorption value of the test compound, cell control, and medium control. The cytotoxic effect was expressed as IC50. The IC50 value was obtained from the probit analysis by using SPSS software (IBM Corp., Chicago). The degree of selectivity was expressed as a selectivity index. The selectivity index was obtained from the ratio between the IC50 cytotoxic effect on Vero cells and IC50 antiplasmodial activity on Plasmodium. A compound is said to be safe if the value of the selectivity index is >10 [20].

[4] = tested on: Plasmodium falciparum FCR-3 (chloroquine-resistant strain); test: In vitro antiplasmodial activity assay, microscopic method, strain FCR-3; assay type: cell-based
How it was run: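 Sorbitol-synchronized ring-stage parasites at 1% parasitemia, 2% haematocrit in RPMI with 10% human O serum, exposed to compound dilutions in triplicate for 72 h at 37 °C. Parasitemia counted on Giemsa smears (≥1,000 erythrocytes); IC50 from growth inhibition by probit analysis.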

IC50 ([4]; Plasmodium falciparum, FCR3, 72 hours incubation, microscopic method, read-out: IC50 on P. falciparum FCR-3): 0.00676 ± 0.00238 mM
Structure (SMILES): O=c1c2c(O)cccc2oc2cc(O)cc(O)c12 [HX1, 1,6,8-trihydroxyxanthone]
cytotoxicity on Hela (in words) [1]: weak
IC50 on Hela cell line ([1]; in vitro cytotoxicity): 67.7 µg/mL (≈ 277 µM)
cytotoxicity on WIDR (in words) [2]: weak
IC50 on WIDR cell line ([2]; in vitro cytotoxicity): 61.9 µg/mL (≈ 253 µM)
IC50 ([3]; 24 hours incubation): 3.39 ± 0.435 mM
IC50 ([3]; Chlorocebus sabaeus, Vero, 24 h, 24 hours incubation): 3.28 mM
inhibition at 255.94 µM ([3]; Chlorocebus sabaeus, Vero, 24 h, 255.94 μM, read-out: Vero cell growth inhibition after 24 hours incubation): -50.3 ± 17.2%
inhibition at 511.88 µM ([3]; Chlorocebus sabaeus, Vero, 24 h, 511.88 μM, read-out: Vero cell growth inhibition after 24 hours incubation): -4.13 ± 8.21%
inhibition at 1023.75 µM ([3]; Chlorocebus sabaeus, Vero, 24 h, 1023.75 μM, read-out: Vero cell growth inhibition after 24 hours incubation): 15.9 ± 8.24%
inhibition at 2047.5 µM ([3]; Chlorocebus sabaeus, Vero, 24 h, 2047.50 μM, read-out: Vero cell growth inhibition after 24 hours incubation): 28 ± 5.69%
inhibition at 4095 µM ([3]; Chlorocebus sabaeus, Vero, 24 h, 4095.00 μM, read-out: Vero cell growth inhibition after 24 hours incubation): 45.9 ± 5.51%
inhibition at 8190.01 µM ([3]; Chlorocebus sabaeus, Vero, 24 h, 8190.01 μM, read-out: Vero cell growth inhibition after 24 hours incubation): 89.4 ± 1.9%
IC50 ([3]; Chlorocebus sabaeus, Vero): 802 µg/mL
Selectivity index (over strains 3D-7 and FCR-3) ([3]; cytotoxicity/antiplasmodium ratio on P. falciparum 3D-7 and FCR-3): more than 10
Selectivity index 3D-7 ([3]; ratio IC50 on Vero cell/IC50 on P. falciparum 3D-7): 556.54
Selectivity index FCR-3 ([3]; ratio IC50 on Vero cell/IC50 on P. falciparum FCR-3): 502.20
inhibition at 6.39 µM ([4]; Plasmodium falciparum, FCR3, 6.39 μM, read-out: Growth inhibition of P. falciparum Strain FCR-3): 50.9 ± 2.31%
inhibition at 12.8 µM ([4]; Plasmodium falciparum, FCR3, 12.8 μM, read-out: Growth inhibition of P. falciparum Strain FCR-3): 55.2 ± 3.59%
inhibition at 25.59 µM ([4]; Plasmodium falciparum, FCR3, 25.59 μM, read-out: Growth inhibition of P. falciparum Strain FCR-3): 60.2 ± 2.74%
inhibition at 51.19 µM ([4]; Plasmodium falciparum, FCR3, 51.19 μM, read-out: Growth inhibition of P. falciparum Strain FCR-3): 64.4 ± 0.671%
inhibition at 102.38 µM ([4]; Plasmodium falciparum, FCR3, 102.38 μM, read-out: Growth inhibition of P. falciparum Strain FCR-3): 73.7 ± 4.28%
antiplasmodial activity category on P. falciparum FCR-3 ([4]; category by IC50): good (good (IC50 1–20 μM))
